# Reference: ChEMBL document CHEMBL1201862, “PubChem BioAssay data set” (2004)
# Calls of active or inactive are those of the source.
# Legend:
# INS1 = test: beta cell apoptosis inhibitors, cytokine rescue, dose response, luminescence, retest (AID 449756); format: functional, cell-based; conditions: Rattus norvegicus;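 also: cell death triggered by IL-1 beta plus TNF-alpha plus IFN-gamma mixture; protective hits raise ATP signal compared with cytokine alone wells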
# H4 = test: Luminescence Cell-Based Dose Response HTS to Identify Activators of 5'UTR Stem-Loop Driven Prion Protein mRNA Translation in H4 Neuroglioblastoma Cells. [Related pubchem assays: 1829 (Project Summary), 1814 (Primary HTS)]; format: functional; conditions: Homo sapiens
# [1] = Luminescence Cell-Based Dose Response HTS to Identify Activators of Luciferase Translation or Activity in H4 […] Cells. [Related pubchem assays: 1829 (Project Summary), 1814 (Primary HTS)]; format: functional
# [2] = Luminescence Cell-Based Dose Confirmation HTS to Identify Activators of 5'UTR Stem-Loop Driven Alpha-Synuclein mRNA Translation in H4 Neuroglioblastoma Cells. [Related pubchem assays: 1829 (Project Summary), 1814 (Primary HTS)]; format: functional
# Cytochrome P450 3A4 = Cytochrome P450 3A4 (Homo sapiens, UniProt P08684);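 also: CYP3A4 tested as one member of a cytochrome P450 panel screen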
# Cytochrome P450 2C19 = Cytochrome P450 2C19 (Homo sapiens, UniProt P33261); test: Cytochrome panel assay with activity outcomes. Panel member name: p450-cyp2c19 Compounds with AC50 equal or less than 10 uM are considered active; format: functional
# [3] = molecular target: T1, Heat shock factor protein 1 (Mus musculus, UniProt P38532); test: HSF1 potentiators in luciferase reporter cells, confirmation, cell-based, NIH3T3, luminescence, dose retest (AID 435004); format: functional;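 also: stress induced by proteasome inhibitor MG132 added 30 min after compound; luciferase reporter driven by HSF1 response element in NIH3T3 cells; actives raise luminescence as potentiators of the MG132 stress response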
# T1 sequence (P38532 whole entry): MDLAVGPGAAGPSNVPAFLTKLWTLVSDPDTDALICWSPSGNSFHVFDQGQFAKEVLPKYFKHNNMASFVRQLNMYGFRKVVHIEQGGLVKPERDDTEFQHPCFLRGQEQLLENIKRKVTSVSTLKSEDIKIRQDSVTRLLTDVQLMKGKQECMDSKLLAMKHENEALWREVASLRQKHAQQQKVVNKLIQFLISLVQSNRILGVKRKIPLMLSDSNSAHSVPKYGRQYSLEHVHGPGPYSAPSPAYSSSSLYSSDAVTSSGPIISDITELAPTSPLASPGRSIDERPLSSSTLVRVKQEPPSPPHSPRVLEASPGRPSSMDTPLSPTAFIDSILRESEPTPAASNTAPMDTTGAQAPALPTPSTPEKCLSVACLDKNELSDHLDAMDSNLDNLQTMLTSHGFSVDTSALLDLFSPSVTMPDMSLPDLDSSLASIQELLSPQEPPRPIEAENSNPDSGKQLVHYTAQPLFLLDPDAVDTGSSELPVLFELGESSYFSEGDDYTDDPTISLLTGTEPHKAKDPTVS
# Cytochrome P450 1A2 = molecular target: T2, Cytochrome P450 1A2 (Homo sapiens, UniProt P05177);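 also: PubChem cytochrome P450 panel assay, CYP1A2 panel member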
# T2 sequence (P05177 whole entry): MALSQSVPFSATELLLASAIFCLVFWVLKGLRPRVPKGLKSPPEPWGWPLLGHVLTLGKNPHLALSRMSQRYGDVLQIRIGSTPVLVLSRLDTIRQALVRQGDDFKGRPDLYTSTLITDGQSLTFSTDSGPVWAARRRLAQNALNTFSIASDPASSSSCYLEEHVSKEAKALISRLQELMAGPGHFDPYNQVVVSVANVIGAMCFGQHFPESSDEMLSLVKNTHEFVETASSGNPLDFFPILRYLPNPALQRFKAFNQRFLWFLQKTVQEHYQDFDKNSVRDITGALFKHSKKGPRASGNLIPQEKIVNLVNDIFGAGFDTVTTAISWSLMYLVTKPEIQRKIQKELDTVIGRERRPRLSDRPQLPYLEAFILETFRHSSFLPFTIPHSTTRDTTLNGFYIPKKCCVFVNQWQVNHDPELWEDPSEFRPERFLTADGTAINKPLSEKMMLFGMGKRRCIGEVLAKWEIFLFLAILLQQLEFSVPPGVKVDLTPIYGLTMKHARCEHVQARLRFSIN
# [4] = Luminescence Cell-Based Dose Retest to Confirm Inhibitors of Cancer Stem Cells. [Related pubchem assays (depositor defined):AID2717, AID2721]; format: functional; conditions: Homo sapiens
# Streptokinase A = molecular target: T3, Streptokinase A (Streptococcus pyogenes serotype M1, UniProt P10520); test: S. pyogenes streptokinase expression inhibitors, potency, dose response, plasminogen activation absorbance, OD405 (AID 1914); format: functional, Streptococcus pyogenes M1 GAS;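 also: secreted streptokinase activity via plasminogen activation per viability signal from cell pellet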
# T3 sequence (P10520 whole entry): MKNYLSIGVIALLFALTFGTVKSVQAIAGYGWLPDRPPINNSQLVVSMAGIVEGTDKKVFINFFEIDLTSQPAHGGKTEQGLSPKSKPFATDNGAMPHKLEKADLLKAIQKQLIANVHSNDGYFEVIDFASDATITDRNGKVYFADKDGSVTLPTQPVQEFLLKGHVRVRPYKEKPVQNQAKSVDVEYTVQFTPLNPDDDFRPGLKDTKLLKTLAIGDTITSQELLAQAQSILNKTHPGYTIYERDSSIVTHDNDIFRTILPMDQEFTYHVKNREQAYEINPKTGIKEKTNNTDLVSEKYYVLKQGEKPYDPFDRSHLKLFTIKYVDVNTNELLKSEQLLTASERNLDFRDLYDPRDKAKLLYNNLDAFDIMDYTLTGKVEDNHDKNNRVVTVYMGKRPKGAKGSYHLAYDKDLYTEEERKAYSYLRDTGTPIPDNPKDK
# [5] = test system: Streptococcus sp. 'group A'; test: growth inhibition of control SK(-) GAS strain, dose response, counter-screen for streptokinase expression inhibitor project, luminescence, kanamycin, BacTiterGlo, confirmation (AID 1900); format: functional, organism-based
# Streptococcus = test: Group A Streptococcus viability loss, dose response, counter-screen for streptokinase expression inhibitor project, luminescence, BacTiterGlo (AID 1915); format: functional, organism-based;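 also: potency for reduction of bacterial viability or growth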
# Cytochrome P450 2C9 = Cytochrome P450 2C9 (Homo sapiens, UniProt P11712)
# [6] = cytotoxicity toward NIH3T3 fibroblasts, dose response, counter-screen, cell-based, ATP luminescence, mouse fibroblasts (AID 2010); format: functional;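 also: cells exposed to compound for about 90 hours before reading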
# [7] = inhibitors of intracellular T. cruzi replication, confirmation, NIH3T3 host cells, beta-gal luminescence (AID 2044); format: functional, cell-based;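 also: intracellular parasites grown in NIH/3T3 mouse fibroblasts as host cells; luminescent beta-galactosidase reporter signal from transgenic T. cruzi replicating inside host cells; inhibitors lower the luminescence signal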
# Cytochrome P450 2D6 = Cytochrome P450 2D6 (Homo sapiens, UniProt P10635);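 also: CYP2D6 member of a cytochrome P450 panel assay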
# Sequence of Cytochrome P450 2D6 (P10635 whole entry): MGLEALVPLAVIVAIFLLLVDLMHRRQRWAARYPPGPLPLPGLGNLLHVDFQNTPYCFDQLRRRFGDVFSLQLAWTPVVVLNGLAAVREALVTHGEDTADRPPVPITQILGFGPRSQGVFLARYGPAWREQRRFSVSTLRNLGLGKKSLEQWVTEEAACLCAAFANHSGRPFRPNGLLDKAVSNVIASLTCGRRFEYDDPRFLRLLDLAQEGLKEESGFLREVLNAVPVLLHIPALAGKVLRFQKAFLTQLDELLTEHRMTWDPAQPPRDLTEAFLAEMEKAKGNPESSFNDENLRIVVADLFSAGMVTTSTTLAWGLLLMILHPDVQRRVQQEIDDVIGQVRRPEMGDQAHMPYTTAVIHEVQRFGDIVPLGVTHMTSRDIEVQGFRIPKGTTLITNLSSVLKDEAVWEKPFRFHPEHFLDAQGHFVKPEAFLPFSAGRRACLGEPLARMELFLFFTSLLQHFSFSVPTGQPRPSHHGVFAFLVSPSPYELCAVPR
# Sequence of Cytochrome P450 2C19 (P33261 whole entry): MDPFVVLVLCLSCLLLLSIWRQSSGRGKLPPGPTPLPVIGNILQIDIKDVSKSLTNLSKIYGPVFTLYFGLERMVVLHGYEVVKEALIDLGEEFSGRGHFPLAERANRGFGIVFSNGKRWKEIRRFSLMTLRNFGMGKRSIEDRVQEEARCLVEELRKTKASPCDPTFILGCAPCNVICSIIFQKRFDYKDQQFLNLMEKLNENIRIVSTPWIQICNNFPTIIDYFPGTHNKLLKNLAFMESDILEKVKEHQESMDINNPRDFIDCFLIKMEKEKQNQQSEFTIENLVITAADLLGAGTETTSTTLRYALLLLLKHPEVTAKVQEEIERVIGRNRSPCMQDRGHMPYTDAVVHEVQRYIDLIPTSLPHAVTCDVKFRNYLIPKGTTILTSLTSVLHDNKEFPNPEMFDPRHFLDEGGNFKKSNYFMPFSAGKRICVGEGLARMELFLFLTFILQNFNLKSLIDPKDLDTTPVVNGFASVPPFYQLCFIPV
# Sequence of Cytochrome P450 3A4 (P08684 whole entry): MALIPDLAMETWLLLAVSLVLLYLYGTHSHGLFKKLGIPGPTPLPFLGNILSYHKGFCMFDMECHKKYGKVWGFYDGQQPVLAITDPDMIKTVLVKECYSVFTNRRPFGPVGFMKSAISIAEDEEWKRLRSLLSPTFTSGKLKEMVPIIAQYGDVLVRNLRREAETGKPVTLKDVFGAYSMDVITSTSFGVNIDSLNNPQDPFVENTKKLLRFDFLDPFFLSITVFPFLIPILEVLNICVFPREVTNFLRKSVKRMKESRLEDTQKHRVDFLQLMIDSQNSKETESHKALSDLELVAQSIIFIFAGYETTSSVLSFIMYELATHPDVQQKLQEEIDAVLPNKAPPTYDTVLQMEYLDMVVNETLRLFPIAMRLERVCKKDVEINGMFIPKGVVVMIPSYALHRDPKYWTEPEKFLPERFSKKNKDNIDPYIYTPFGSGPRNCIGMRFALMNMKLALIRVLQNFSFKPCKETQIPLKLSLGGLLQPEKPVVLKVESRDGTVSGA
# Sequence of Cytochrome P450 2C9 (P11712 whole entry): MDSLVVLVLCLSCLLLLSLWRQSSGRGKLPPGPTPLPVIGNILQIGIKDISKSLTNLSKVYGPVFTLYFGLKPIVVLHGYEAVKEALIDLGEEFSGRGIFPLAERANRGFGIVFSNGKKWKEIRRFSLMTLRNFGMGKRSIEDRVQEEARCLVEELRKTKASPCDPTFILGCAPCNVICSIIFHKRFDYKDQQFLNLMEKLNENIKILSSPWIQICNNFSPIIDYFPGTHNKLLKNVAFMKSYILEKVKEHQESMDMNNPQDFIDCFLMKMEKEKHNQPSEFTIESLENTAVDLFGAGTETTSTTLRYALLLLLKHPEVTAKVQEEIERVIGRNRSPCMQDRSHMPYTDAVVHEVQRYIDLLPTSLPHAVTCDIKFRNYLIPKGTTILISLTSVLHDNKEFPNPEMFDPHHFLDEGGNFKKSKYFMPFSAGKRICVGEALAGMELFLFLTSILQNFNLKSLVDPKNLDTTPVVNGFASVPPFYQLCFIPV
smiles,measurement,setting,value
CN1/C(=C\C(=S)NC(=O)c2ccc([N+](=O)[O-])cc2)C(C)(C)c2ccccc21,AC50,INS1,22.2 µM (active)
O=C(CCS(=O)(=O)c1cccs1)NC1CCCCCC1,EC50,H4,16 µM (active)
same,EC50,[1],29.1 µM (active)
same,EC50,[2],13.5 µM (active)
CCSc1ccc2c(c1)N(CCCN1CCN(C)CC1)c1ccccc1S2,AC50,Cytochrome P450 3A4,10 µM (inconclusive)
same,AC50,Cytochrome P450 2C19; read-out: AC50,3.16 µM (inconclusive)
CC1=NN(C(N)=S)C(=O)C1N=Nc1ccc(Cl)cc1Cl (stereo not given),EC50,H4,> 120 µM (not active)
same,EC50,[1],> 120 µM (not active)
same,EC50,[2],1.09 µM (active)
CC1(C)CC(=O)/C(=C\c2cccc([N+](=O)[O-])c2)C(C)(C)N1,EC50,[3],18.6 µM (active)
COc1[nH]nc2nncnc12,AC50,Cytochrome P450 1A2,6.31 µM (inconclusive)
same,AC50,Cytochrome P450 2C19; read-out: AC50,15.8 µM (inconclusive)
CCOC(=O)Cc1nnc(Nc2cccc(C)c2)c2ccccc12,EC50,[3],> 260 µM (inactive)
CC1(C)CC(=O)C2=C(C1)c1c(ccc3ccccc13)NC2c1ccco1 (stereo not given),EC50,H4,> 120 µM (not active)
same,EC50,[1],27.4 µM (active)
same,EC50,[2],15.7 µM (active)
CCC1C(=O)n2nc(-c3ccccc3)cc2N=C1C (stereo not given),EC50,[1],6.09 µM (active)
same,EC50,[2],25.7 µM (active)
COc1ccc(C)cc1Nc1n[n+](-c2ccccc2)c(-c2c(OC)ccc3ccccc23)s1,AC50,[4],4.84 µM (active)
same,AC50,INS1,5.74 µM (active)
Cc1cc(O)[nH]c2nnc(-c3ccccc3)c1-2,EC50,H4,15.1 µM (active)
same,EC50,[1],10 µM (active)
same,EC50,[2],8.88 µM (active)
Cc1ccc(CSc2nc3sc(C)c(C)c3c(=O)n2Cc2ccco2)cc1,EC50,Streptokinase A,99.5 µM (active)
same,EC50,[5],> 150 µM (not active)
same,AC50,[4],23.3 µM (active)
same,EC50,Streptococcus,> 150 µM (not active)
COc1cc2c(cc1OC)/C(=C/C(=O)N1CCOCC1)NC(C)(C)C2,AC50,Cytochrome P450 2C9,3.98 µM (inconclusive)
same,AC50,Cytochrome P450 1A2,15.8 µM (inconclusive)
same,AC50,Cytochrome P450 2C19; read-out: AC50,22.4 µM (inconclusive)
Cc1ccc(Sc2cc(C)nc(-c3ccccn3)n2)cc1,EC50,Streptokinase A,> 150 µM (not active)
same,EC50,[5],21.1 µM (active)
same,EC50,Streptococcus,49.4 µM (active)
same,AC50,INS1,4 µM (active)
O=C(Nc1cccc(Cl)c1)Nc1sccc1-c1nc2ccccc2s1,AC50,[4],39 µM (active)
CCc1cccc(NS(=O)(=O)c2ccc3c(c2)NC(=O)C(C)S3)c1 (stereo not given),EC50,[3],> 260 µM (inactive)
Cc1nnc2n1N=CC=C(c1ccccc1)S2,EC50,H4,> 120 µM (not active)
same,EC50,[1],7.89 µM (active)
same,EC50,[2],0.547 µM (active)
CCOC(=O)c1cnc(-n2nc(C)cc2C)nc1Nc1ccc(N(C)C)cc1,EC50,[6],> 30 µM (not active)
same,AC50,INS1,4.04 µM (active)
same,EC50,[7],1.12 µM (active)
CC(C)(C)NC(=O)C(c1ccncc1)N(C(=O)Cn1nnc(-c2cccs2)n1)C1CCCCC1 (stereo not given),EC50,[3],> 260 µM (inactive)
Oc1c2cnnc-2nc(SCc2ccccc2F)n1-c1ccc(Br)cc1,AC50,[4],3.3 µM (active)
CC(C)C[C@H]1CN=C(Nc2ccccc2)N1CCc1ccc(F)cc1,AC50,INS1,64.4 µM (active)
COc1ccc2c(c1O)-c1cccc3c1[C@H](C2)N(C)CC3,AC50,Cytochrome P450 3A4,15.8 µM (inconclusive)
same,AC50,Cytochrome P450 2D6,31.6 µM (inconclusive)
same,AC50,Cytochrome P450 2C19; read-out: AC50,7.94 µM (inconclusive)
C/C(=C\C(=O)Nc1cscc1C)C(=O)O,EC50,[3],> 260 µM (inactive)
Cc1cccc(OCCOC(=O)c2c(-c3ccccc3)noc2C)c1,EC50,H4,> 120 µM (not active)
same,EC50,[1],62 µM (active)
same,EC50,[2],> 120 µM (not active)
Cc1cc(C)c2c3c(sc2n1)C1(CCSCC1)C(C#N)=C(N)O3,EC50,[6],> 30 µM (not active)
same,EC50,H4,14.7 µM (active)
same,EC50,[1],14.5 µM (inconclusive)
same,EC50,[7],0.118 µM (active)
same,EC50,[2],20.3 µM (active)
c1ccc(-c2sc3ccccc3c2-c2ccc(OCCN3CCOCC3)cc2)cc1,AC50,[4],2.28 µM (active)
COc1ccc(C2N(c3ccccn3)C(=O)C3CCCN32)c(OC)c1 (stereo not given),AC50,Cytochrome P450 3A4,22.4 µM (inconclusive)
same,AC50,Cytochrome P450 1A2,0.00631 µM (inconclusive)
same,AC50,Cytochrome P450 2C19; read-out: AC50,28.2 µM (inconclusive)
CN(/N=C/c1cc(Cl)cc(Cl)c1O)C(=S)NC(C)(C)C,AC50,[4],2.5 µM (active)
Cc1nc2ccccc2c(=O)n1/N=C1\C(=O)N(C)c2ccccc21,EC50,H4,> 120 µM (not active)
same,EC50,[1],12.6 µM (active)
same,EC50,[2],> 120 µM (not active)
CC(C)CC(=O)O/N=C1\C(=O)N(c2ccccc2)c2ccccc21,AC50,Cytochrome P450 2C9,6.31 µM (inconclusive)
same,AC50,Cytochrome P450 1A2,3.55 µM (inconclusive)
same,AC50,Cytochrome P450 2C19; read-out: AC50,5.62 µM (inconclusive)
COC(=O)c1ccc(COc2ccccc2/C=N/NS(=O)(=O)c2ccc(C)cc2)cc1,EC50,H4,> 120 µM (not active)
same,EC50,[1],> 120 µM (not active)
same,EC50,[2],> 120 µM (not active)
O=C1NC2(CCCCC2)C(=O)N1/N=C/c1ccccc1Br,EC50,H4,16.1 µM (active)
same,EC50,[1],24.6 µM (active)
same,EC50,[2],> 120 µM (not active)
CCN1/C(=N/c2ccc(Cl)cc2)SC/C1=C\C(=O)OC,EC50,H4,23.7 µM (active)
same,EC50,[1],26.6 µM (active)
same,EC50,[2],17.1 µM (active)
O=C(O)[C@H]1CN[C@H](C(=O)O)C1,AC50,Cytochrome P450 2D6,39.8 µM (inconclusive)
same,AC50,Cytochrome P450 1A2,31.6 µM (inconclusive)
same,AC50,Cytochrome P450 2C19,inconclusive
